In the NIST ThermoML archive (doi:10.1016/j.jct.2015.10.018) one finds mass density and refractive index data, which are given here for 4 molecules.

SMILES strings stand for the structures. Numbers after ± are expanded uncertainties.

For series [1] the following is noted: 298.15 K; 101.33 kPa; Liquid; Vibrating tube method.
Series [2] can be described thus: refractive index (Na D-line) (dimensionless). Conditions: 298.15 K; 101.33 kPa; Liquid; Standard Abbe refractometry.

A word on the mass density: it is the mass of a sample divided by its volume. For orientation: refractive index means a measure of how strongly the sample bends light. For `CCn1cc[n+](C)c1.N#CN=C=[N-]` [1-ethyl-3-methylimidazolium dicyanamide], the mass density in series [1] came to 1102.03 ± 1.1 kg/m3. In series [2], the refractive index is given as 1.51452 ± 0.00051.

On to `C1CCCCC1` [cyclohexane], for which, in series [1], the mass density came out at 773.88 ± 0.17 kg/m3. In addition, the refractive index in series [2] turned out to be 1.42356 ± 0.00033.

As to `CCCCCCC` [heptane], in series [1], the mass density worked out at 679.57 ± 0.25 kg/m3. For the same molecule, the refractive index in series [2] is given as 1.38529 ± 0.00037.

For `Cc1ccccc1` [toluene], the mass density in series [1] worked out at 862.23 ± 0.13 kg/m3. Also, in series [2], the refractive index is listed as 1.49398 ± 0.00031.
